# According to patent US7554012B2, “Plants and plant cells exhibiting resistance to AMPA, and methods for making the same” (priority 1998, dated 2009):
# Where “and” joins values, the source holds several entries; their conditions need not be identical. Identical values can stand only once. Like-named read-outs stand apart in the source and are kept apart here.
# Assays:
# PhnO enzyme = PhnO enzyme (Escherichia coli, UniProt P16691, P2A)
# Description: The apparent Km (Km) and Vmax (Vmax) of PhnO enzyme were determined for the substrates aminomethlyphosphonate and acetyl-CoA. Determination of the PhnO Km and Vmax were made by endpoint kinetic analyses, determining the enzyme velocity in consuming each substrate at varying substrate concentrations, and plotting the inverse of the enzyme velocity versus the inverse of the substrate concentration to produce a Lineweaver-Burk plot of enzyme kinetics. The conversion of [^14C]-AMPA to N-acetyl-[^14C]-AMPA was monitored as in example 2, using enzyme in a desalted crude lysate of E. coli expressing phnO from pMON15032, produced as in example 4. […] Enzyme reactions were incubated at 37° C. for 5 minutes and quenched with 1 volume of 100 mM sodium acetate (NaOAc), pH 4.4, in ethanol. Samples were analyzed by HPLC to determine the amount of [^14C]-AMPA converted to N-acetyl-[^14C]-AMPA.
# E. coli GB993 = assay: Cell growth in MOPS medium with AMPA; assay type: cell-based; settings: 0.2 mM AMPA, growth period 54 hrs
# Description: The phn operon is induced when E. coli is grown in media lacking or limited in a phosphate source. Therefore, E. coli GB993 was compared to the parental JM101 strain when grown in MOPS minimal media. GB993 and its mpu− parent strain, JM101, were grown under identical conditions, varying only the amount of phosphate available or supplemented with AMPA. 50 ml cultures were grown in duplicate in 250 ml sidearm-Erlenmeyer flasks with continuous shaking at 37° C. in MOPS medium (5 mls of 10×MOPS salts, 0.5 ml 1 mg/ml thiamin, 0.5 ml 20% glucose, to 50 mls with dH2O) containing 0.1 or 5 mM phosphate, or 0.1 mM phosphate supplemented with approximately 0.2 mM AMPA, pH 7.0. The cultures were generally grown to about 220 Klett units and the cells were pelleted by centrifugation, resuspended in 1.5 mls of 10 mM Tris/1 mM DTT, and lysed with two passes through a French press at […]. Lysates were centrifuged to remove debris and the supernatant passed through a G-50 column equilibrated with 50 mM Tris pH 7.0.
# [1] = system: wild type Coker 312 plants; assay: AMPA spray on cotton plants; assay type: in vivo, cotton (Gossypium hirsutum L.)
# Description: Previously identified plants transformed with a double gene glyphosate resistance cassette comprised of EPSPS and GOX encoding genes were determined to be resistant to glyphosate when applied at 48 ounces per acre through the 6-7 leaf stage, however severe bleaching of the leaves was observed. This phytotoxic effect was presumed to be due to the formation of AMPA as a result of GOX mediated glyphosate degradation. To test this, AMPA was sprayed at three different rates onto wild type Coker 312 plants. […] To test this, cotton plants expressing GOX or GOX plus EPSPS alone or in combination with PhnO expression were treated with [^14C]-glyphosate, and the metabolism of the isotope labeled glyphosate was monitored in leaf tissue seven days after application.
# [2] = system: recombinant cotton line 4416; assay: [^14C]-glyphosate metabolism in cotton line 4416; assay type: in vivo, cotton (Gossypium hirsutum L.); settings: line 4416 plants; listed as [^14C]-Glyphosate
# Description: Coker 312 glyphosate resistant recombinant cotton line 4416 was selected as a glyphosate resistant cotton line after transformation with pMON10149, a triple gene Agrobacterium tumefaciens mediated double border plant transformation vector containing chloroplast targeted EPSPS, GOX, and PhnO, each expressed independently from separate 35S promoters. Several 4416 R3 plants were raised from R2 seed. One leaf of each plantlet at the three or four stage was treated with a mixture of ROUNDUP ULTRA™ commercial herbicide mixture (Lot No. GLP-9701-7428-F) which had been fortified with [^14C]-glyphosate (Code No. C-2251). […] The treatment solution consisted of approximately 38 μL containing 1.60×10^6 dpm with a [^14C]-glyphosate specific activity of 1.713×10^3 dpm/μg glyphosate acid. Three or seven days after topical application the treated leaves were rinsed with water, frozen in liquid nitrogen, fractured with a spatula and then ground using a TEKMAR™ tissuemizer in 10 mL of water. The leaf extracts were adjusted to pH 3.5-4.0 with 1N HCl and approximately 4-8000 dpm were analyzed for the presence of [^14C]-metabolites by HPLC with liquid scintillation vial collection and detection (HPLC/LSC) as described in example 2. The new growth including the meristem and new leaves that emerged following topical application were also extracted and analyzed for [^14C]-metabolites.
# [3] = system: recombinant cotton line 3753 (EPSPS/GOX); assay: [^14C]-glyphosate metabolism in cotton line 3753; assay type: in vivo, cotton (Gossypium hirsutum L.); settings: EPSPS/GOX Plants
# Description: (§1) The metabolism of [^14C]-glyphosate in recombinant cotton lines 4268 (GOX/PhnO) and 3753 (EPSPS/GOX) was also studied. Plants in this study were treated as indicated above for cotton line 4416, by applying droplets of ROUNDUP ULTRA fortified with [^14C]-glyphosate to a single leaf on each plant at the three to four leaf stage. Treated leaves were harvested and rinsed with water, then ground and extracted, and extracts were analyzed by HPLC as described above for the presence of [^14C]-glyphosate, [^14C]-AMPA, and N-acetyl-[^14C]-AMPA. New growth, including the meristem and new leaves that emerged following application were also extracted and analyzed.
# [4] = system: recombinant cotton line 4268 (GOX/PhnO); assay: [^14C]-glyphosate metabolism in cotton line 4268; assay type: in vivo, cotton (Gossypium hirsutum L.); settings: GOX/PhnO Plants
# Description: as §1
# male gametes = settings: under optimal conditions; cited from earlier work
# [5] = AMPA substrate 200 nm (nanomoles)
# Sequence of PhnO enzyme (P16691 whole entry P2A): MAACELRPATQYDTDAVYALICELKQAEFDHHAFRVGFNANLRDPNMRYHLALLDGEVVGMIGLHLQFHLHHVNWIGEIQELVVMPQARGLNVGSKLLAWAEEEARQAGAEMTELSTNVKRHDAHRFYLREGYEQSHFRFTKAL
molecule,measurement,setting,value
"NCP(=O)(O)O [AMPA, N-aminomethyl phosphonic acid]",% Turnover,PhnO enzyme; [5],39.5%
same,Velocity,PhnO enzyme; [5],79 nm per minute per mg of protei
same,% Turnover,PhnO enzyme; AMPA substrate 400 nm,35.1%
same,Velocity,PhnO enzyme; AMPA substrate 400 nm,140 nm per minute per mg of protei
same,% Turnover,PhnO enzyme; AMPA substrate 800 nm,32.9%
same,Velocity,PhnO enzyme; AMPA substrate 800 nm,263 nm per minute per mg of protei
same,% Turnover,PhnO enzyme; AMPA substrate 1200 nm,26.8%
same,Velocity,PhnO enzyme; AMPA substrate 1200 nm,322 nm per minute per mg of protei
same,% Turnover,PhnO enzyme; AMPA substrate 1600 nm,26.2%
same,Velocity,PhnO enzyme; AMPA substrate 1600 nm,426 nm per minute per mg of protei
same,% Turnover,PhnO enzyme; AMPA substrate 2000 nm,22.1%
same,Velocity,PhnO enzyme; AMPA substrate 2000 nm,442 nm per minute per mg of protei
same,% Turnover,PhnO enzyme; AMPA substrate 2400 nm,19.2%
same,Velocity,PhnO enzyme; AMPA substrate 2400 nm,461 nm per minute per mg of protei
same,% Turnover,PhnO enzyme; AMPA substrate 2800 nm,17.6%
same,Velocity,PhnO enzyme; AMPA substrate 2800 nm,493 nm per minute per mg of protei
same,% Turnover,PhnO enzyme; AMPA substrate 3200 nm,17.3%
same,Velocity,PhnO enzyme; AMPA substrate 3200 nm,554 nm per minute per mg of protei
same,% Turnover,PhnO enzyme; AMPA substrate 3600 nm,14.5%
same,Velocity,PhnO enzyme; AMPA substrate 3600 nm,522 nm per minute per mg of protei
same,% Turnover,PhnO enzyme; AMPA substrate 4000 nm,13.6%
same,Velocity,PhnO enzyme; AMPA substrate 4000 nm,544 nm per minute per mg of protei
same,% Turnover,PhnO enzyme; AMPA substrate 6000 nm,12.7%
same,Velocity,PhnO enzyme; AMPA substrate 6000 nm,762 nm per minute per mg of protei
same,% Turnover,PhnO enzyme; AMPA substrate 7600 nm,10%
same,Velocity,PhnO enzyme; AMPA substrate 7600 nm,760 nm per minute per mg of protei
same,apparent Vmax,"PhnO enzyme; AMPA substrate, Lineweaver-Burk plot",about 824 U/mg protein
same,Km,"PhnO enzyme; read-out: apparent Km of PhnO for AMPA as a substrate, Lineweaver-Burk plot of Table 8 data",~9 mM
same,Harvest Density,E. coli GB993,185 Klett Units
same,phytotoxic effect on plants,"[1]; 64 ounces per acre, eight days post-application",Leaf chlorosis and stunted growth
same,phytotoxic effect on plants,"[1]; 640 ounces per acre, four days post-application",Leaf chlorosis and stunted growth
N-phosphono-methyl-glycine [Glyphosate],% [^14C] metabolite in Glyphosate Treated Leaf Extract: AMPA,[2],2.1% and 2.0% and 1.6% and 2.2% and 2.5%
same,% [^14C] metabolite in Glyphosate Treated Leaf Extract: N-Acetyl-AMPA,[2],27-74%
same,% [^14C] metabolite in New Growth Extract: AMPA,[2],0.2% and 0.5% and 2.5%
same,% [^14C] metabolite in New Growth Extract: Glyphosate,[2],greater than 90%
same,% [^14C] metabolite in New Growth Extract: N-Acetyl AMPA,[2],greater than 90%
same,% [^14C] metabolite in New Growth Extract: N-Acetyl-AMPA,[3],1.9%
same,% [^14C] metabolite in Glyphosate Treated Leaf Extract: AMPA,[3]; listed as [^14C]-Glyphosate,6-27%
same,% [^14C] metabolite in Glyphosate Treated Leaf Extract: Glyphosate,[3]; listed as [^14C]-Glyphosate,59.8% and 92.7% and 81.2% and 86.2%
same,% [^14C] metabolite in Glyphosate Treated Leaf Extract: N-Acetyl-AMPA,[3]; listed as [^14C]-Glyphosate,0.8% and 1.0%
same,% [^14C] metabolite in New Growth Extract: AMPA,[3]; listed as [^14C]-Glyphosate,72-86%
same,% [^14C] metabolite in New Growth Extract: Glyphosate,[3]; listed as [^14C]-Glyphosate,93%
same,% [^14C] metabolite in Glyphosate Treated Leaf Extract: AMPA,[4]; listed as [^14C]-Glyphosate,3.2% and 5.7% and 3.0% and 4.8%
same,% [^14C] metabolite in Glyphosate Treated Leaf Extract: Glyphosate,[4]; listed as [^14C]-Glyphosate,54.4% and 58.3% and 76.7% and 63.9%
same,% [^14C] metabolite in New Growth Extract: AMPA,[4]; listed as [^14C]-Glyphosate,1.2% and 1.0% and 1.5%
same,% [^14C] metabolite in New Growth Extract: Glyphosate,[4]; listed as [^14C]-Glyphosate,0.8% and 1.1% and 3.4%
same,% [^14C] metabolite in New Growth Extract: N-Acetyl-AMPA,[4]; listed as [^14C]-Glyphosate,94.7% and 91.0% and 89.9% and 91.5%
same,% [^14C] metabolite in New Growth Extract: N-Acetyl-AMPA,[4]; listed as [^14C]-glyphosate,90-95%
same,male gametes killed,male gametes,about 95%
